Experimental findings from paper PMC2222622, “The DeoR-type transcriptional regulator SugR acts as a repressor for genes encoding the phosphoenolpyruvate:sugar phosphotransferase system (PTS) in Corynebacterium glutamicum” (BMC Molecular Biology, 2007) are described below.

This assay deals with T1, SugR (Corynebacterium glutamicum, UniProt Q8NP85).
T1 construct: gene Cgl1931; expressed in E. coli ER2566 from pTYB1 (pLGI1, 777 bp sugR without stop codon) as C-terminal intein fusion, tag self-cleaved, no extra residues
T1 sequence (Q8NP85 1-259): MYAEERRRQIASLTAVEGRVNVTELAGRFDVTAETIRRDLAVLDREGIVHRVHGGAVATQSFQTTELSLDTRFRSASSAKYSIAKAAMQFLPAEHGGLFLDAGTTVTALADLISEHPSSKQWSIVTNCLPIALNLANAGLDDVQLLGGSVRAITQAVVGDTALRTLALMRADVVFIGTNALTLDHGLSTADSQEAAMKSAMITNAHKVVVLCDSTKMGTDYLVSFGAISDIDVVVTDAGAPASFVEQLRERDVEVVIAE
As to the kind of experiment: EMSA, release of SugR from Cy3-labelled DNA fragment I2. The class given is binding. Particulars: negative effector; 15 pmol SugR, 0.05 pmol DNA I2 (ptsI-cg2118 intergenic region), 1 mM MgCl2, pH 7.5, RT; threshold of effect, not an IC50. For orientation: Mobility shift assays separate free from complexed probe on a gel.

SMILES strings stand for the structures. Some results are limits rather than exact numbers.

For the compound `O=P(O)(O)OC[C@H]1OC(O)[C@H](O)[C@@H](O)[C@@H]1O` (stereo partly shown) [G-6-P, glucose-6-phosphate], the “concentration needed for significant effect” value is over 10 mM.
